pEC50: −log10 of the molar value. *1 amine or outer side, *2 acyl side, *3 side chain or, on linkers, in order; H or OH if unused. Where a SMILES comes first, the peptide text is derived from it. Side-chain parts run from the residue outwards. [ ]: non-standard residue; d: D form. The star is where a group is joined. PEG24 = NCCOCCOCCOCCOCCOCCOCCOCCOCCOCCOCCOCCOCCOCCOCCOCCOCCOCCOCCOCCOCCOCCOCCOCCOCCC(=O)O; Bip(2'-Et-4'-O(CH2)4NH2) = CCc1cc(OCCCCN[*:3])ccc1-c1ccc(C[C@H](N[*:1])C(=O)[*:2])cc1; Bip(2'-Et,4'-O(CH2)4N3) = CCc1cc(OCCCCN=[N+]=[N-])ccc1-c1ccc(C[C@H](N)C(=O)O)cc1; Bip(2'-Et,4'-O(CH2)4NH2) = CCc1cc(OCCCCN)ccc1-c1ccc(C[C@H](N)C(=O)O)cc1; X6 = O=C(NCCOCCOCCOCCOC(=O)*)OC[C@@H]1[C@@H]2CCc3[nH]nnc3CC[C@@H]21; Malonyl(2,2-Me2,histaminyl) = CC(C)(C(=O)NCCc1cnc[nH]1)C(=O)*; Nva(5-(3,5-Me2Ph)) = Cc1cc(C)cc(CCC[C@H](N)C(=O)O)c1; Ala(1H-tetrazol-5-yl) = N[C@@H](Cc1nnn[nH]1)C(=O)O; αMePhe(2-F) = C[C@](N)(Cc1ccccc1F)C(=O)O; DBCO = C1#Cc2ccccc2N(*)Cc2ccccc21; Suc = O=C(CCC(=O)[*:2])[*:1]; Aib = CC(C)(N)C(=O)O
Key:
[1] = Plasma stability of payloads and linker-payloads, human plasma; assay type: in vitro ADME; details: for half-life at 2 µM: human, pooled plasma, pH 7.4, payload properties table, species not given, read-out: Plasma stability t½ (converted)
Procedure: The plasma stability of payloads and linker payloads of the disclosure were measured. For the assay, pooled frozen plasma (human, mouse or monkey) was thawed in cold water or a 37° C. water bath prior to experiment. Plasma was centrifuged at 4000 rpm for 5 min if any clots were observed, they were subsequently removed. If required, the pH was adjusted to 7.4±0.1. For the preparation of compounds and positive controls, a 1 mM intermediate solution was prepared by diluting 10 μL of their stock solution with 90 μL DMSO; a 1 mM intermediate solution of the positive control (Propantheline) was prepared by diluting 10 μL of its stock solution with 90 μL ultrapure water. […] 98 μL of plasma was spiked with 2 μL of dosing solution (100 μM) to achieve the final concentration of 2 μM in duplicate. Samples were then incubated at 37° C. in a water bath. […] At each time point, 400 μL of stop solution (200 ng/mL tolbutamide plus 200 ng/mL labetalol in 50% ACN/MeOH) was added to precipitate protein and mixed thoroughly. Sample plates were then centrifuged at 4,000 rpm for 10 min. An aliquot of supernatant (50 μL) was transferred from each well and mixed with 100 μL ultra-pure water. The samples were then shaken at 800 rpm for approximately 10 min before submitting for LC-MS/MS analysis.

HEK293/CRE-Luc cells = assay: cAMP responsive luciferase reporter assay, HEK293/CRE-Luc cells (no hGLP1R expression); assay type: cell-based, human
Excerpt: (§1) To test the activity of GLP1R agonist payloads, GLP1R agonist linker-payloads (LPs), and anti-GLP1R antibody tethered drug conjugates (ATDCs) of the disclosure, a cell-based cAMP responsive luciferase reporter assay was developed. To generate the assay cell line, the firefly luciferase gene was placed under the control of a cAMP response element (CRE) located upstream of a minimal promoter and transfected into HEK293 cells and referred to herein as HEK293/CRE-Luc cells.
(§2) Three-fold serial dilutions of free payloads or LPs were prepared in 100% DMSO, transferred to fresh assay media, and added to the cells at a final constant DMSO concentration of 0.2%. The last well in the plate served as a blank control containing only the assay media and 0.2% DMSO (untreated well) and was plotted as a continuation of the 3-fold serial dilution. Four to six hours later, luciferase activity was determined after the addition of One-Glo™ reagent (Promega, Cat #E6130) to each well. Relative light units (RLUs) were measured on an Envision luminometer (PerkinElmer) and EC50 values were determined using a four-parameter logistic equation over a 12-point dose response curve (GraphPad Prism). The signal to noise (S/N) was determined by taking the ratio of the highest RLU on the dose response curve to the RLU in the untreated wells.

human GLP1R = human GLP1R (Homo sapiens (Human), UniProt P43220); assay: cAMP responsive luciferase reporter assay, HEK293/CRE-Luc/hGLP1R cells; assay type: cell-based
Chain of human GLP1R (P43220 24-463): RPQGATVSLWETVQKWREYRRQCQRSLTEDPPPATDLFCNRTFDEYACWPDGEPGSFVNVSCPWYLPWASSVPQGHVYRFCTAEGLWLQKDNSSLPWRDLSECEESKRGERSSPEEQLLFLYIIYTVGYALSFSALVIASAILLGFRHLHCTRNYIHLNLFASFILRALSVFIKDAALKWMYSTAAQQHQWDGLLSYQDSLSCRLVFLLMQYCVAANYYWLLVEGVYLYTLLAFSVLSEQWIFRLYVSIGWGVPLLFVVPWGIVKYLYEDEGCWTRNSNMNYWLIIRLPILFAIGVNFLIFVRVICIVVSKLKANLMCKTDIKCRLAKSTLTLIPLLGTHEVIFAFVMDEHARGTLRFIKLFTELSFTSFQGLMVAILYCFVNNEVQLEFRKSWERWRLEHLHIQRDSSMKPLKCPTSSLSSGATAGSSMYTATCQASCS
Excerpt: as §1, §2
GLP1R agonist linker payloads were conjugated to anti-hGLP1R antibodies via N-terminal heavy or light chain Q tags. Several resulting anti-GLP1R antibody tethered drug conjugates (ATDCs) were tested for activity in the HEK293/CRE-Luc/hGLP1R reporter assay as described above for the free GLP1R payload and linker-payload agonists.

[2] = human plasma, tested for 3 days (C)
[3] = human plasma, tested for 7 days (D)
[4] = relative to P8 of the same experiment
[5] = human plasma, tested for 1 day (A)

Compound: CCc1cc(OCCCCn2cc(COCCOCCOCCOCCOCCOCCOCCOCCC(=O)N[C@@H](CC(C)C)C(=O)N3CCC[C@@H]3C(=O)N[C@@H](CCC(=O)O)C(=O)N[C@H](C(=O)NCC(=O)NCC(=O)O)[C@@H](C)O)nn2)ccc1-c1ccc(C[C@H](NC(=O)[C@H](CC(=O)O)NC(=O)[C@H](CO)NC(=O)[C@@H](NC(=O)[C@](C)(Cc2ccccc2F)NC(=O)[C@@H](NC(=O)CNC(=O)[C@H](Cc2nn[nH]n2)NC(=O)C(C)(C)C(=O)NCCc2cnc[nH]2)[C@@H](C)O)[C@@H](C)O)C(=O)N[C@@H](CCCc2cc(C)cc(C)c2)C(N)=O)cc1 [LP34, GGTEPL-PEG8- triazole-P8]
- Human plasma stability assay T½ [1, 2]: >173.4 h

Compound: CCc1cc(OCCCCn2cc(COCCOCCOCCOCCOCCOCCOCCOCCN)nn2)ccc1-c1ccc(C[C@H](NC(=O)[C@H](CC(=O)O)NC(=O)[C@H](CO)NC(=O)[C@@H](NC(=O)[C@](C)(Cc2ccccc2F)NC(=O)[C@@H](NC(=O)CNC(=O)[C@H](Cc2nn[nH]n2)NC(=O)C(C)(C)NC(=O)[C@@H](N)Cc2ccc(O)cc2)[C@@H](C)O)[C@@H](C)O)C(=O)N[C@@H](CCCc2cc(C)cc(C)c2)C(N)=O)cc1 [LP29, NH2-PEG8-triazole-P19]
- Human plasma stability assay T½ [1, 2]: >173.4 h

Compound: CCc1cc(OCCCCNC(=O)[C@H](CO)NC(=O)CNC(=O)CNC(=O)CNC(=O)CNC(=O)CCC(=O)N2Cc3ccccc3-c3nn[nH]c3-c3ccccc32)ccc1-c1ccc(C[C@H](NC(=O)[C@H](CC(=O)O)NC(=O)[C@H](CO)NC(=O)[C@@H](NC(=O)[C@](C)(Cc2ccccc2F)NC(=O)[C@@H](NC(=O)CNC(=O)[C@H](Cc2nn[nH]n2)NC(=O)C(C)(C)C(=O)NCCc2cnc[nH]2)[C@@H](C)O)[C@@H](C)O)C(=O)N[C@@H](CCCc2cc(C)cc(C)c2)C(N)=O)cc1 [LP26, triazole-DABAC- G4S-P9]
- Human plasma stability assay T½ [1, 3]: >404.7 h

Compound: CCc1cc(OCCCCNC(=O)CCOCCOCCOCCOCCOCCOCCOCCOCCOCCOCCOCCOCCOCCOCCOCCOCCOCCOCCOCCOCCOCCOCCOCCOCCNC(=O)CCC(=O)N2Cc3ccccc3C#Cc3ccccc32)ccc1-c1ccc(C[C@H](NC(=O)[C@H](CC(=O)O)NC(=O)[C@H](CO)NC(=O)[C@@H](NC(=O)[C@](C)(Cc2ccccc2F)NC(=O)[C@@H](NC(=O)CNC(=O)[C@H](Cc2nn[nH]n2)NC(=O)C(C)(C)C(=O)NCCc2cnc[nH]2)[C@@H](C)O)[C@@H](C)O)C(=O)N[C@@H](CCCc2cc(C)cc(C)c2)C(N)=O)cc1 [LP4, DIBAC-suc-PEG24-P9] ({Malonyl(2,2-Me2,histaminyl)}-[Ala(1H-tetrazol-5-yl)]GT[αMePhe(2-F)]TSD[Bip(2'-Et-4'-O(CH2)4NH2)]([PEG24-Suc-DBCO])[Nva(5-(3,5-Me2Ph))]-NH2)
- pEC50 (HEK293/CRE-Luc cells): < 6.70
- HEK293/CRE-LUC S/N (HEK293/CRE-Luc cells): 1.7
- HEK293/CRE-LUC/hGLP1R S/N (human GLP1R; highest RLU / RLU of untreated wells): 63.8
- HEK293/CRE-LUC/hGLP1R Relative Potency (% P8 EC50) (human GLP1R; [4]): 4.2%
- HEK293/CRE-LUC/hGLP1R Relative Signal:Noise (% P8) (human GLP1R; [4]): 97.1%

Compound: CCc1cc(OCCCCN)ccc1-c1ccc(C[C@H](NC(=O)[C@H](CC(=O)O)NC(=O)[C@H](CO)NC(=O)[C@@H](NC(=O)[C@](C)(Cc2ccccc2F)NC(=O)[C@@H](NC(=O)CNC(=O)[C@@H](N)Cc2nn[nH]n2)[C@@H](C)O)[C@@H](C)O)C(=O)N[C@@H](CCCc2cc(C)cc(C)c2)C(N)=O)cc1 [P2]
- Human plasma stability assay T½ ([1]; human plasma, tested for 2 hrs (B)): 10.74 h
- half-life at 2 µM [1]: 10.7 h

Compound: CCc1cc(OCCCCn2cc(COCCOCCOCCOCCNC(=O)OC[C@@H]3[C@@H]4CCc5[nH]nnc5CC[C@@H]43)nn2)ccc1-c1ccc(C[C@H](NC(=O)[C@H](CC(=O)O)NC(=O)[C@H](CO)NC(=O)[C@@H](NC(=O)[C@](C)(Cc2ccccc2F)NC(=O)[C@@H](NC(=O)CNC(=O)[C@H](Cc2nn[nH]n2)NC(=O)C(C)(C)C(=O)NCCc2cnc[nH]2)[C@@H](C)O)[C@@H](C)O)C(=O)N[C@@H](CCCc2cc(C)cc(C)c2)C(N)=O)cc1 [LP24, triazole-BCN-PEG4-triazole-P8]
- Human plasma stability assay T½ [1, 3]: >404.7 h

Compound: CCc1cc(OCCCCN=[N+]=[N-])ccc1-c1ccc(C[C@H](NC(=O)[C@H](CC(=O)O)NC(=O)[C@H](CO)NC(=O)[C@@H](NC(=O)[C@](C)(Cc2ccccc2F)NC(=O)[C@@H](NC(=O)CNC(=O)[C@H](Cc2nn[nH]n2)NC(=O)C(C)(C)C(=O)NCCc2cnc[nH]2)[C@@H](C)O)[C@@H](C)O)C(=O)N[C@@H](CCCc2cc(C)cc(C)c2)C(=O)O)cc1 [P41] ({Malonyl(2,2-Me2,histaminyl)}-[Ala(1H-tetrazol-5-yl)]GT[αMePhe(2-F)]TSD[Bip(2'-Et,4'-O(CH2)4N3)][Nva(5-(3,5-Me2Ph))]-OH)
- Human plasma stability assay T½ [1, 5]: >57.81 h

Compound: CC[C@H](C)[C@H](NC(=O)[C@H](Cc1ccccc1)NC(=O)[C@H](CCC(=O)O)NC(=O)[C@H](CCCCN)NC(=O)[C@H](C)NC(=O)[C@H](C)NC(=O)[C@H](CCC(N)=O)NC(=O)CNC(=O)[C@H](CCC(=O)O)NC(=O)[C@H](CC(C)C)NC(=O)[C@H](Cc1ccc(O)cc1)NC(=O)[C@H](CO)NC(=O)[C@H](CO)NC(=O)[C@@H](NC(=O)[C@H](CC(=O)O)NC(=O)[C@H](CO)NC(=O)[C@@H](NC(=O)[C@H](Cc1ccccc1)NC(=O)[C@@H](NC(=O)CNC(=O)[C@H](CCC(=O)O)NC(=O)[C@H](C)NC(=O)[C@@H](N)Cc1c[nH]cn1)[C@@H](C)O)[C@@H](C)O)C(C)C)C(=O)N[C@@H](C)C(=O)N[C@@H](Cc1c[nH]c2ccccc12)C(=O)N[C@@H](CC(C)C)C(=O)N[C@H](C(=O)N[C@@H](CCCCN)C(=O)NCC(=O)N[C@@H](CCCNC(=N)N)C(N)=O)C(C)C [GLP1, Glucagon-like peptide 1, reference compound]
- HEK293/CRE-LUC S/N (HEK293/CRE-Luc cells): 1.3
- HEK293/CRE-Luc S/N (HEK293/CRE-Luc cells; ATDCs, Table 12): 1.4

Compound: CCc1cc(OCCCCNC(=O)OCCOCCOCCOCCNC(=O)OC[C@@H]2[C@@H]3CCc4[nH]nnc4CC[C@@H]32)ccc1-c1ccc(C[C@H](NC(=O)[C@H](CC(=O)O)NC(=O)[C@H](CO)NC(=O)[C@@H](NC(=O)[C@](C)(Cc2ccccc2F)NC(=O)[C@@H](NC(=O)CNC(=O)[C@H](Cc2nn[nH]n2)NC(=O)C(C)(C)C(=O)NCCc2cnc[nH]2)[C@@H](C)O)[C@@H](C)O)C(=O)N[C@@H](CCCc2cc(C)cc(C)c2)C(N)=O)cc1 [LP25, triazole-BCN-PEG4-carbamate-P9] ({Malonyl(2,2-Me2,histaminyl)}-[Ala(1H-tetrazol-5-yl)]GT[αMePhe(2-F)]TSD[Bip(2'-Et-4'-O(CH2)4NH2)](X6)[Nva(5-(3,5-Me2Ph))]-NH2)
- Human plasma stability assay T½ [1, 3]: 284.8 h

Compound: CCc1cc(OCCCCn2cc(COCCOCCOCCOCCOCCOCCOCCOCCNC(=O)CCC(=O)N3Cc4ccccc4-c4nn[nH]c4-c4ccccc43)nn2)ccc1-c1ccc(C[C@H](NC(=O)[C@H](CC(=O)O)NC(=O)[C@H](CO)NC(=O)[C@@H](NC(=O)[C@](C)(Cc2ccccc2F)NC(=O)[C@@H](NC(=O)CNC(=O)[C@H](Cc2nn[nH]n2)NC(=O)C(C)(C)C(=O)NCCc2cnc[nH]2)[C@@H](C)O)[C@@H](C)O)C(=O)N[C@@H](CCCc2cc(C)cc(C)c2)C(N)=O)cc1 [LP28, triazole-DIBAC-suc-PEG8-triazole-P8]
- half-life ([1]; human plasma, tested for 3 days (C), read-out: Human plasma stability assay T½): > 173 h

Compound: CCc1cc(OCCCCN)ccc1-c1ccc(C[C@H](NC(=O)[C@H](CC(=O)O)NC(=O)[C@H](CO)NC(=O)[C@@H](NC(=O)[C@](C)(Cc2ccccc2F)NC(=O)[C@@H](NC(=O)CNC(=O)[C@H](Cc2nn[nH]n2)NC(=O)C(C)(C)NC(=O)[C@@H](N)Cc2ccc(O)cc2)[C@@H](C)O)[C@@H](C)O)C(=O)N[C@@H](CCCc2cc(C)cc(C)c2)C(N)=O)cc1 [P19] (H-Y[Aib][Ala(1H-tetrazol-5-yl)]GT[αMePhe(2-F)]TSD[Bip(2'-Et,4'-O(CH2)4NH2)][Nva(5-(3,5-Me2Ph))]-NH2)
- Human plasma stability assay T½ [1, 5]: >57.81 h
- half-life at 2 µM [1]: > 57.8 h
